Measured values from US8455240B2, “Use of thermophilic sulphate-reducing archaea for the implementation of a process for the degradation of hydrocarbons” (Institut de Recherche pour le Development (I.R.D.), priority 2005, dated 2013).
Values joined by “and” are separate entries in the source; they are usually repeats but may differ in a detail not shown here. Equal values may be shown once. Marks after values point to notes of the source that are not given here.

What was measured:
[1] = test system: strain L-3; assay: Subculture on hydrocarbons, strain L-3 (sulphide production); format: cell-based, Archaeoglobus fulgidus CNCM I-3465 (strain L-3)
Procedure: (§1) Experimentally, 4 ml of Cord-Ruwish reagent comprising 50 mmol/l of HCl and 5 mmol/l of CuSO4 are added to 0.1 ml of sample. Copper sulphate (CuSO4) by reacting with hydrogen sulphide (H2S), forms a copper sulphide precipitate (CuS) after the reaction: CuSO4+H2S→CuS+H2SO4
(§2) According to this method, the CuS is assayed by spectrophotometry at 480 nm. The readings are carried out against a blank constituted by 4 ml of Cord-Ruwish reagent.
(§3) A subculture was carried out starting from the preceding experiment on naphthalene, DBT solubilized as previously in HMN, and on HMN alone, for the two strains studied.
(§4) For this subculture, apart from the tests containing the hydrocarbon (DBT, naphthalene (Naph), […]), and seeded with the previously chosen inoculum, abiotic controls (negative controls) containing the substrate (hydrocarbon) but not inoculated were produced for the purpose of quantifying the sulphide production which could be due to chemical reactions between the different constituents of the medium. In these controls there was no development in the concentration of sulphide over a period of 20 days (Table 4).

[2] = test system: strain L-3; assay: Screening for hydrocarbon degradation, strain L-3 (sulphide production, Cord-Ruwish); format: cell-based, Archaeoglobus fulgidus CNCM I-3465 (strain L-3); settings: for Count / OD 580 / H2S: choice of the inoculum for the subculture; for H2S: tubes of the screening; for ΔS tf-ti: final minus initial sulphide
Procedure: as §1, §2
(§5) The study of the hydrocarbon degradation abilities is an experiment which requires a particularly long incubation. Thus, it was carried out in Bellco tubes sealed with thick rubber stoppers.
(§6) For these experiments, tubes containing 10 ml of culture medium without substrate, are 10% inoculated, then the hydrocarbon is introduced by injection through the stopper.
(§7) The hydrocarbons chosen are model molecules belonging to the different classes of hydrocarbons, namely: • hexadecane (CH3(CH2)14CH3, C16), a saturated linear aliphatic hydrocarbon; • hexadecene (CH3(CH2)13CHCH2, C16:1), an unsaturated linear aliphatic hydrocarbon of biogenic origin; • dibenzothiophene (DBT, C12H8S), a sulphur-containing aromatic hydrocarbon.
(§8) The aliphatic hydrocarbons (C16; C16:1) are added to the corresponding tubes, at a rate of 0.04 ml/10 ml of culture medium. The aromatic hydrocarbons (DBT) are solubilized in 2,2,4,4,6,8,8-heptamethylnonane (HMN, C16H34) at a rate of 20 mg/ml of HMN, and 0.75 ml of this solution is injected into 10 ml of culture medium.
(§9) 3 tubes were produced for each test and control. The growth of the strains was monitored indirectly by the production of sulphide.
as §3

[3] = test system: A. fulgidus; assay: Complementary experiment: sulphate as electron acceptor instead of thiosulphate; format: cell-based, Archaeoglobus fulgidus
Procedure: A first experiment was carried out with A. fulgidus for the purpose of studying the effect of sulphate as an electron acceptor instead of the thiosulphate used previously. […] This explains that at the bottom of the oceans where sulphate is abundant relative to thiosulphate which is in the minority, the phenomenon of DBT or HMN degradation cannot occur spontaneously.

[4] = test system: Archaeoglobus fulgidus (collection strain); assay: Quantitative study of the degradation of hydrocarbons (DBT, HMN), collection strain; format: cell-based
Procedure: Experiments were carried out in order to establish the stoichiometric equation of the degradation of hydrocarbons in the case of the collection strain only. Thus, the hydrocarbon concentrations were assayed at the initial and final time, like the thiosulphate concentrations. Moreover, the increase in the biomass was followed by the increase in the microbial population based on the most probable number method (MPN).
In order to be able to quantify the hydrocarbons with precision, the thick rubber stoppers were covered with a Teflon film, an inert substance which avoids any loss of the hydrocarbon by absorption or adsorption.
The hydrocarbons were added at a rate of: • for the DBT: 10 mg of DBT dissolved in 0.5 ml of HMN, 0.5 ml of this solution is added to the tests; • for the HMN: 6 μl of HMN/10 ml of culture medium.
The tests prepared are inoculated with the preceding subculture.

[5] = test system: Archaeoglobus fulgidus; assay: Screening for hydrocarbon degradation, A. fulgidus (sulphide production, Cord-Ruwish); format: cell-based
Procedure: as §1, §2, §5, §6, §7, §8, §9, §3

[6] = test system: A. fulgidus; assay: Subculture on hydrocarbons, A. fulgidus (sulphide production); format: cell-based, Archaeoglobus fulgidus; settings: for ΔS tf-ti: final minus initial sulphide
Procedure: as §1, §2, §3, §4

[7] = test system: Archaeoglobus fulgidus DSM 4304; assay: Monitoring of thiosulphate during the degradation of fatty acids by A. fulgidus; format: cell-based; settings: end of May 2005; E1/E2 replicates; listed as C5 fatty acid
Procedure: (§10) The thiosulphate and sulphate assays are carried out by ion chromatography.
(§11) The analyses are carried out with a chromatograph (Compact IC 761, Metrohm) equipped with: • A […] ion-exchange column (Metrosep A SUPP 1-250 (6.1005.300)), size 4.6*250 mm; • The eluent used is Na2CO3 at a concentration of 3 mmol/l, at a flow rate of 1 to 2.5 ml/min; ((→the flow rate varies during the analysis)) • A sample processor (Metrohm 838); • A conductimeter; • A computer where the results are recorded, integrated and analyzed by software (761 Compact IC, Metrohm). III.3.2. Operating Method
(§12) The operating conditions are such that the temperature is 20° C. and the pressure is 5 MPa. The samples to be analyzed are filtered. The injection volume is 20 μl. The detection is of conductimetric electrochemical type with chemical suppression allowing elution gradients.
(§13) Monitoring of thiosulphate during the degradation of fatty acids by A. fulgidus and by L-3

[8] = test system: strain L-3; assay: Monitoring of thiosulphate during the degradation of fatty acids by L-3; format: cell-based, Archaeoglobus fulgidus CNCM I-3465 (strain L-3); settings: time 0 (Feb. 5, 2005); E1/E2 replicates
Procedure: as §10, §11, §12, §13

[9] = test system: strain L-3; assay: Sources of carbon and energy used by the strain L-3; format: cell-based, Archaeoglobus fulgidus CNCM I-3465 (strain L-3); settings: thiosulphate as electron acceptor; for H2S (480 nm): unit from b126
Procedure: as §1, §2
(§14) The analysis and quantification of the metabolites are carried out by HPLC by measuring the disappearance of the substrate and the appearance of different metabolism products.
The study of the growth of the strain L-3 in the presence of different sources of carbon and energy was carried out with thiosulphate as an electron acceptor. The monitoring was carried out by estimation of the cell biomass (OD 580 nm), by assay of the sulphide production (Cord-Ruwish). The results were confirmed by HPLC analyses, and completed in certain cases by a CO2 assay.

[10] = test system: strain L-3; assay: Degradation of different substrates by the strain L-3 as a function of the electron acceptor; format: cell-based, Archaeoglobus fulgidus CNCM I-3465 (strain L-3); set-up: total H2S: unit not given here
Procedure: as §1, §2, §14
(§15) The study of the degradation abilities of different substrates of the strain L-3 was based on a comparison with the collection strain, Archaeoglobus fulgidus (DSM 4304). The degradation of the substrates, by the two strains was monitored by a measurement of the cell biomass at 580 nm, a sulphide assay produced according to the Cord-Ruwish method, a study of the degradation metabolites by HPLC, completed by a CO2 assay with a GPC-Katharometer.
(§16) Two series of tests were prepared, one with thiosulphate, the other with sulphate as an electron acceptor.

[11] = test system: Archaeoglobus fulgidus (DSM 4304); assay: Degradation of different substrates by A. fulgidus as a function of the electron acceptor; format: cell-based; settings: for total H2S: unit from b116
Procedure: as §1, §2, §14, §15, §16

[12] = test system: Archaeoglobus fulgidus; assay: Degradation kinetics of lactate; format: cell-based
Procedure: as §14
This can be explained by the fact that the strain L-3 can have a substrate degradation metabolism different from that of Archaeoglobus fulgidus.

[13] = choice of the inoculum for the subculture
[14] = thiosulphate as electron acceptor
[15] = thiosulphate or sulphate as electron acceptor

Molecule	sulphide production (OD 480) 0 d [1]	sulphide production (OD 480) 8 d [1]	sulphide production (OD 480) 22 d [1]	sulphide production (OD 480) 45 d [1]	sulphide production (OD 480) 45 d [2]	sulphide production (OD 480) 70 d [2]	Count [2]	OD 580 [2]	H2S [2]	ΔS tf-ti [2]	microbial growth with sulphate as electron acceptor [3]	sulphide assay at the end of 75 days [4]	sulphide production (OD 480) 10 d [5]	sulphide production (OD 480) 45 d [5]	sulphide production (OD 480) 60 d [5]	sulphide production (OD 480) 8 d [6]	sulphide production (OD 480) 22 d [6]	ΔS tf-ti [6]	sulphide production (OD 480) 70 d [5]	sulphide production (OD 480) 45 d [6]	also measured
c1ccc2c(c1)sc1ccccc12 [DBT, dibenzothiophene]	0.3 mM and 0.2 mM	0.6 mM and 0.4 mM	1.1 mM and 1 mM and 0.8 mM	2 mM and 1.1 mM and 1 mM	1 mM and 1.2 mM and 1.4 mM	0.9 mM and 1.2 mM and 1.4 mM	8.17*10^7 Cells/ml and 6.55*10^7 Cells/ml	0.2284 and 0.3479	0.9 mM and 1.2 mM	0.8 mM and 1.2 mM and 1.5 mM	no microbial growth	approximately 9.5 mM	0.6 mM and 0.8 mM and 0.7 mM	1.1 mM and 1.3 mM	1.1 mM and 1.7 mM and 1.5 mM	1.3 mM and 1.1 mM and 1.2 mM	2.1 mM and 1.9 mM	3 mM and 3.1 mM and 3.2 mM			sulphide production (OD 480) 60 d ([2]; 60 d): 0.6 mM and 0.7 mM and 1.1 mM; sulphide production (OD 480) 0 d ([5]; 0 d, aromatics solubilized in HMN): 0.4 mM and 0.3 mM and 0.5 mM; sulphide value in the hydrocarbon screening stage (ΔS45d, Table 1) ([5]; 45 days): ≤ 1 mM; Count [5, 13]: 9.4*10^7 Cells/ml and 8.33*10^7 Cells/ml and 7.22*10^7 Cells/ml; OD 580 [5, 13]: 0.9801 and 1.424 and 0.9189; sulphide production (OD 480) 0 d ([6]; 0 d): 0.2 mM and 0.1 mM
CC(CC(C)(C)C)CC(C)(C)CC(C)(C)C (centres unmarked) [HMN, 2,2,4,4,6,8,8-heptamethylnonane]	0.3 mM and 0.2 mM	0.6 mM and 0.5 mM and 0.4 mM	1 mM and 0.9 mM and 0.6 mM		0.7 mM and 0.9 mM	1 mM and 1.4 mM and 1.9 mM	6.08*10^7 Cells/ml	0.5921 and 0.6696	1 mM and 1.4 mM and 2 mM	1 mM and 1.4 mM and 2 mM	no microbial growth	approximately 6 mM	0.8 mM and 1 mM	0.8 mM and 1.1 mM	0.9 mM and 0.7 mM and 1.3 mM	0.6 mM and 1 mM and 0.7 mM		1.4 mM and 2.5 mM and 1.5 mM	1.3 mM and 0.9 mM and 1.2 mM	2 mM and 3.5 mM and 2.2 mM	Sulphide (mM)(480 nM) ([4]; after 7 weeks of incubation, with yeast extract (EL)): 1.3 mM; H2S ([5]; choice of the inoculum for the subculture, tubes of the screening): 1.3 mM and 0.9 mM and 1.2 mM; sulphide production during the subculture, on average [6]: 1.8 mM
CCCCC(=O)O [valerate]																					thiosulphate, end of May 2005 [7]: 11.86 mM and 9.39 mM; thiosulphate, time 0 [8]: 13.95* mM
lactate	0.2 mM and 0.1 mM	4.8 mM and 6.1 mM	4.7 mM and 8 mM	3.9 mM	1.8 mM and 3.2 mM and 1.7 mM									3.5 mM and 3.8 mM and 4.3 mM	3.3 mM and 3 mM and 3.1 mM	0.3 mM	0.3 mM		3.9 mM and 3.7 mM	0.2 mM and 0.3 mM	OD 580 nm Final [9]: 0.1249 and 0.1173; OD 580 nm Initial [9]: 0.0742 and 0.0841; H2S (480 nm) [9]: 5.7 mM and 2.9 mM; H2S (480 nm) ([9]; listed as lactate): 5.7 mM; ΔS tf-ti ([5]; final minus initial sulphide): 3.6 mM and 3.2 mM; final OD 580 ([10]; sulphate as electron acceptor): 0.3076 and 0.2071; initial OD 580 ([10]; sulphate as electron acceptor): 0.1024 and 0.0888; total H2S ([10]; sulphate as electron acceptor): 2.8 and 1.4; final OD 580 [10, 14]: 0.1027 and 0.1161; initial OD 580 [10, 14]: 0.073 and 0.1029; total H2S [10, 14]: 9.3 and 7.2; ability of the strain L-3 to degrade the substrate [10, 15]: capable of degrading; initial OD 580 ([11]; sulphate as electron acceptor): 0.1657 and 0.1456; total H2S ([11]; sulphate as electron acceptor): 7.1 mM and 12.2 mM; final OD 580 [11, 14]: 0.3681 and 0.314; initial OD 580 [11, 14]: 0.1333 and 0.1419; total H2S [11, 14]: 8 mM and 9.3 mM; ability of Archaeoglobus fulgidus to oxidize the substrate [11, 15]: capable of oxidizing; lactate degradation at the end of three months [12]: all of the lactate is degraded
